In publication PMC3323742 (Biochemistry, 2012):

Biological target: 2-methylisoborneol synthase (MIBS), full length (Streptomyces coelicolor, UniProt Q9F1Y6, E193A)
Assay: GC-MS of pentane-extracted products
Format: biochemical
Conditions: 60 μM substrate, 5 μM enzyme, 10 mM MgCl2, pH 7.0, 30 °C, 12 h

Chain of 2-methylisoborneol synthase (MIBS), full length (Q9F1Y6 whole entry E193A): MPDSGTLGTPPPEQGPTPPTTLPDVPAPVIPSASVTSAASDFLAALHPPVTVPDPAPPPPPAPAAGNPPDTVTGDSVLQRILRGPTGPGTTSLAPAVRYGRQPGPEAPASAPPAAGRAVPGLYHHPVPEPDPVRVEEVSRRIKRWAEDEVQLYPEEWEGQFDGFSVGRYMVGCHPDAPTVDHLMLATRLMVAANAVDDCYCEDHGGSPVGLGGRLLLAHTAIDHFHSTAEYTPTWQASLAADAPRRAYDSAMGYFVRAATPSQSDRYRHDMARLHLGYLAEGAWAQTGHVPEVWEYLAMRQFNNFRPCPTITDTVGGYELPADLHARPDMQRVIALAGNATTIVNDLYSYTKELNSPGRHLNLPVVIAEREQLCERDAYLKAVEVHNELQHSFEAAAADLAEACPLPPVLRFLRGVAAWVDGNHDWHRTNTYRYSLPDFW

## CC(C)=CCC/C(C)=C(\C)COP(=O)(O)OP(=O)(O)O [2MGPP, 2-methylgeranyl diphosphate]
  GC-MS of pentane-extracted products: overnight incubation of the E193A, E193L, and E193D mutants with 2MGPP
